Experiments:
MCF-7 cells = assay: Breast cancer cell viability assay (CellTiter-Glo, 5 days); assay type: cell-based; conditions: 5 days' compound exposure; for IC50: Homo sapiens, MCF7, 120 h
How it was run: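 MCF-7 cells, 320 per well in RPMI with 10% FBS and 20 mM HEPES, adhered overnight, then exposed 5 days to an eleven-point semilog dilution (final 0.3-0.000003 μM). CellTiter-Glo luminescence read; % viability = (sample − cell-free background)/(untreated − background) × 100.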

ER-α in MCF-7 cells = target: T1, ER-α in MCF-7 cells (Homo sapiens, UniProt P03372); assay: Breast cancer cell ER-α in cell western assay (SP1); assay type: cell-based; parameters: endogenous in cells; host or cells: MCF-7; conditions: 4 or 24 hr post compound addition; for Emax: MCF7, SP1 antibody, read-out: ER-α In Cell Western Assay (SP1) Max Response; for DC50: SP1 antibody, read-out: ER-α In Cell Western Assay (SP1) IC50
T1 sequence (P03372 1-595): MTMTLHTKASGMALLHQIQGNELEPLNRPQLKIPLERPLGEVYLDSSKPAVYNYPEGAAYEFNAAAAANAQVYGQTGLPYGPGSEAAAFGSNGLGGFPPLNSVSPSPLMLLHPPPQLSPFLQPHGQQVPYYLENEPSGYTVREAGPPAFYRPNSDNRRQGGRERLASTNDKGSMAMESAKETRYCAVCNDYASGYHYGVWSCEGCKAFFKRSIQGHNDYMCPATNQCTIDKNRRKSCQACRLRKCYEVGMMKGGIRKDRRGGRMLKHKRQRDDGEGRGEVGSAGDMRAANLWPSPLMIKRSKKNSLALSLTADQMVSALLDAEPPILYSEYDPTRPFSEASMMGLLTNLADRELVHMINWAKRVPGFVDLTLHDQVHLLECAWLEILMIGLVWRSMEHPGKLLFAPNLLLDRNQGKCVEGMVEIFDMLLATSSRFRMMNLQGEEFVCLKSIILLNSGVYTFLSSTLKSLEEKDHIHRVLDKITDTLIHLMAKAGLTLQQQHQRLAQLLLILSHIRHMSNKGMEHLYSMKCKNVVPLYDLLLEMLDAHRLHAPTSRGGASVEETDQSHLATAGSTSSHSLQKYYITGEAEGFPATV
How it was run: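 ER-α protein levels were measured in MCF-7 cells after 4 or 24 hr compound exposure (final 0.3–0.000003 μM) in RPMI containing 10% charcoal-stripped FBS.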

IC50 (MCF-7 cells) [nM]	Emax (ER-α in MCF-7 cells) [%]	DC50 (ER-α in MCF-7 cells) [nM]	Structure (SMILES)	MCF7 Viability Assay Max Response (MCF-7 cells)
≤ 100	≥ 40	≤ 100	CC/C(=C(/c1ccc(OC[C@H](C)N2CC[C@@H](C)C2)cc1)c1ccc2[nH]ncc2c1)c1ccncc1Cl [Compound 331, 5-((E)-2-(3-Chloropyridin-4-yl)-1-(4-((S)-2-((R)-3-methylpyrrolidin-1-yl)propoxy)phenyl)but-1-en-1-yl)-1H-indazole]	++ (++ = a single % value ≧ 40%)
> 100	≥ 40	> 100	CC/C(=C(/c1ccc(OC2(C(=O)O)CC2)cc1)c1ccc2[nH]ncc2c1)c1ccc(F)cc1Cl [Compound 332, (E)-1-(4-(2-(2-Chloro-4-fluorophenyl)-1-(1H-indazol-5-yl)but-1-en-1-yl)phenoxy)cyclopropanecarboxylic acid]	++ (++ = a single % value ≧ 40%)
≤ 100	≥ 40	≤ 100	CC/C(=C(/c1ccc(-c2cc(O)no2)cc1)c1ccc2[nH]ncc2c1)c1ccc(F)cc1Cl [Compound 333, (E)-5-(4-(2-(2-Chloro-4-fluorophenyl)-1-(1H-indazol-5-yl)but-1-en-1-yl)phenyl)isoxazol-3-ol]	++ (++ = a single % value ≧ 40%)
> 100	≥ 40	≤ 100	CC/C(=C(/c1ccc(-c2cc(O)on2)cc1)c1ccc2[nH]ncc2c1)c1ccc(F)cc1Cl [Compound 334, (E)-3-(4-(2-(2-Chloro-4-fluorophenyl)-1-(1H-indazol-5-yl)but-1-en-1-yl)phenyl)isoxazol-5-ol]	+ (+ = a single % value < 40%)
> 100	≥ 40	≤ 100	CC/C(=C(/c1ccc(CCC(=O)O)cc1)c1ccc2[nH]ncc2c1)c1ccccc1 [Compound 338, (E)-3-(4-(1-(1H-Indazol-5-yl)-2-phenylbut-1-en-1-yl)phenyl)propanoic acid]	++ (++ = a single % value ≧ 40%)
≤ 100	≥ 40	≤ 100	CC/C(=C(/c1ccc(/C=C/C(=O)O)cc1)c1ccc2[nH]ncc2c1)c1ccc(OCCOC)cc1 [Compound 339, (E)-3-(4-((E)-1-(1H-Indazol-5-yl)-2-(4-(2-methoxyethoxy)phenyl)but-1-en-1-yl)phenyl)acrylic acid]	++ (++ = a single % value ≧ 40%)
≤ 100	≥ 40	≤ 100	CC/C(=C(/c1ccc(/C=C/C(=O)O)cc1)c1ccc2[nH]ncc2c1)c1ccc(OCCCOC)cc1 [Compound 340, (E)-3-(4-((E)-1-(1H-Indazol-5-yl)-2-(4-(3-methoxypropoxy)phenyl)but-1-en-1-yl)phenyl)acrylic acid]	++ (++ = a single % value ≧ 40%)
≤ 100	≥ 40	≤ 100	CC/C(=C(/c1ccc(/C=C/C(=O)O)cc1)c1ccc2[nH]ncc2c1)c1cccc(OCCOC)c1 [Compound 341, (E)-3-(4-((E)-1-(1H-Indazol-5-yl)-2-(3-(2-methoxyethoxy)phenyl)but-1-en-1-yl)phenyl)acrylic acid]	++ (++ = a single % value ≧ 40%)
≤ 100	≥ 40	≤ 100	CC/C(=C(/c1ccc(/C=C/C(=O)O)cc1)c1ccc2[nH]ncc2c1)c1cccc(OCCCOC)c1 [Compound 342, (E)-3-(4-((E)-1-(1H-Indazol-5-yl)-2-(3-(3-methoxypropoxy)phenyl)but-1-en-1-yl)phenyl)acrylic acid]	++ (++ = a single % value ≧ 40%)
> 100	≥ 40	> 100	CC/C(=C(/c1ccc(/C=C/C(=O)O)cc1)c1ccc2[nH]ncc2c1F)c1cccc(OC2CCN(C)CC2)c1 [Compound 343, (E)-3-(4-((E)-1-(4-Fluoro-1H-indazol-5-yl)-2-(3-((1-methylpiperidin-4-yl)oxy)phenyl)but-1-en-1-yl)phenyl)acrylic acid]	++ (++ = a single % value ≧ 40%)
> 100	≥ 40	≤ 100	CC/C(=C(/c1ccc(/C=C/C(=O)O)cc1)c1ccc2[nH]ncc2c1F)c1cccc(OC2CCOCC2)c1 [Compound 344, (E)-3-(4-((E)-1-(4-Fluoro-1H-indazol-5-yl)-2-(3-((tetrahydro-2H-pyran-4-yl)oxy)phenyl)but-1-en-1-yl)phenyl)acrylic acid]	++ (++ = a single % value ≧ 40%)
≤ 100	≥ 40	≤ 100	CC/C(=C(/c1ccc(/C=C/C(=O)O)cc1)c1ccc2[nH]ncc2c1F)c1cccc(OC2CCCCC2)c1 [Compound 345, (E)-3-(4-((E)-2-(3-(Cyclohexyloxy)phenyl)-1-(4-fluoro-1H-indazol-5-yl)but-1-en-1-yl)phenyl)acrylic acid]	++ (++ = a single % value ≧ 40%)
> 100	< 40	> 100	CC/C(=C(/c1ccc(/C=C/C(=O)O)cc1)c1ccc2[nH]ncc2c1)c1cccc(OCC(=O)O)c1 [Compound 347, (E)-3-(4-((E)-2-(3-(Carboxymethoxy)phenyl)-1-(1H-indazol-5-yl)but-1-en-1-yl)phenyl)acrylic acid]	+ (+ = a single % value < 40%)
> 100	< 40	> 100	CC/C(=C(/c1ccc(/C=C/C(=O)O)cc1)c1ccc2[nH]ncc2c1)c1ccc(OCC(=O)O)cc1 [Compound 348, (E)-3-(4-((E)-2-(4-(Carboxymethoxy)phenyl)-1-(1H-indazol-5-yl)but-1-en-1-yl)phenyl)acrylic acid]	+ (+ = a single % value < 40%)
≤ 100	≥ 40	≤ 100	CCCCCOc1cccc(/C(CC)=C(\c2ccc(/C=C/C(=O)O)cc2)c2ccc3[nH]ncc3c2)c1 [Compound 349, (E)-3-(4-((E)-1-(1H-Indazol-5-yl)-2-(3-(pentyloxy)phenyl)but-1-en-1-yl)phenyl)acrylic acid]	++ (++ = a single % value ≧ 40%)
> 100	≥ 40	≤ 100	CCCCCCOc1cccc(/C(CC)=C(\c2ccc(/C=C/C(=O)O)cc2)c2ccc3[nH]ncc3c2)c1 [Compound 350, (E)-3-(4-((E)-2-(3-(Hexyloxy)phenyl)-1-(1H-indazol-5-yl)but-1-en-1-yl)phenyl)acrylic acid]	++ (++ = a single % value ≧ 40%)
> 100	≥ 40	> 100	CC/C(=C(/c1ccc(/C=C/C(=O)O)cc1)c1ccc2[nH]ncc2c1)c1cccc(OCCCC(=O)O)c1 [Compound 351, 4-(3-((E)-1-(4-((E)-2-Carboxyvinyl)phenyl)-1-(1H-indazol-5-yl)but-1-en-2-yl)phenoxy)butanoic acid]	+ (+ = a single % value < 40%)
> 100	≥ 40	> 100	CC/C(=C(/c1ccc(/C=C/C(=O)O)cc1)c1ccc2[nH]ncc2c1)c1cccc(OCCCCC(=O)O)c1 [Compound 352, 5-(3-((E)-1-(4-((E)-2-Carboxyvinyl)phenyl)-1-(1H-indazol-5-yl)but-1-en-2-yl)phenoxy)pentanoic acid]	+ (+ = a single % value < 40%)
> 100	≥ 40	> 100	CC/C(=C(/c1ccc(/C=C/C(=O)O)cc1)c1ccc2[nH]ncc2c1)c1ccc(OCCCC(=O)O)cc1 [Compound 353, 4-(4-((E)-1-(4-((E)-2-Carboxyvinyl)phenyl)-1-(1H-indazol-5-yl)but-1-en-2-yl)phenoxy)butanoic acid]	+ (+ = a single % value < 40%)
> 100	≥ 40	> 100	CC/C(=C(/c1ccc(/C=C/C(=O)O)cc1)c1ccc2[nH]ncc2c1)c1ccc(OCCCCC(=O)O)cc1 [Compound 354, 5-(4-((E)-1-(4-((E)-2-Carboxyvinyl)phenyl)-1-(1H-indazol-5-yl)but-1-en-2-yl)phenoxy)pentanoic acid]	+ (+ = a single % value < 40%)
> 100	≥ 40	≤ 100	CCCCCOc1ccc(/C(CC)=C(\c2ccc(/C=C/C(=O)O)cc2)c2ccc3[nH]ncc3c2)cc1 [Compound 356, (E)-3-(4-((E)-1-(1H-Indazol-5-yl)-2-(4-(pentyloxy)phenyl)but-1-en-1-yl)phenyl)acrylic acid]	++ (++ = a single % value ≧ 40%)
